Results on five compounds are retold here after patent US7892350B2, “Sacrificial agents for fly ash concrete” (Boral Material Technologies Inc., priority 2003, dated 2011).

Read-outs that look alike come from different tables or passages of the source.

The nature of data set [1]: Adsorption/precipitation of SA or AEA in 10 wt % aqueous fly ash or cement slurries at pH 12.5. The data set is classed as physicochemical. The note with it: initial SA 3 mM. The protocol:
Adsorption/Precipitation of Sacrificial Agents (SA) or Air Entrainment Agents (AEA) in 10 wt % Aqueous Fly Ash Slurries at pH 12.5:
(§1) The pH of the solutions were adjusted to 12.5 with NaOH.
Adsorption/Precipitation in FA or Cement Slurries: In this protocol, aqueous slurries containing 10 wt % FA or cement were prepared as described above, except that in this case, the cement was added directly into a solution of the SA or AEA in the following proportions: 3.0 g cement or FA, and 27 g of 3 mM sacrificial agent, or 27 g of 1050 mg/l AEA; the latter were prepared in the same way as in the precipitation test above. The residual (soluble) SA or AEA content in the solution was also determined by UV or COD.

Data set [2] is described as follows: Precipitation in slurry extract or leachate. The data set is classed as physicochemical. The following applies: pH 12.5, entries in parentheses. Here is the method: as §1
Precipitation in slurry extract or leachate: To perform this test, FA or cement leachate were prepared in advance, by filtering two liters of a 10 wt % FA, or cement, slurry in 0.03N NaOH which had been left to stand under slow agitation for 30 min; 2.5 g of the filtrate solution was mixed with 22.5 g of the SA or AEA solution in a 50 ml polypropylene centrifuge tube; the latter was shaken vigorously in an orbital shaker (Eberbach Corporation) for 30 min at room temperature, centrifuged for 5 min and then the supernatant solution was filtered (0.45 μm). The SA or AEA content of the solution was determined using an Ultraviolet-Visible (UV) spectrometer or by COD (Chemical Oxygen Demand) measurement.
Entries in parentheses: % precipitation when reacted with solutions extracted from the fly ash slurries (Results in Table 5).

The nature of data set [3]: Second sacrificial agent testing protocol: paste air measurements with DDBS (0.0125 wt %) and rating. On Overall performance rating (second protocol rating): key: 0: Fail; 1: Poor; 2: Good; 3: Preferred; 4: Most preferred. On SA Rating (0-4): key: 0: Fail; 1: Poor; 2: Good; 3: Preferred; 4: Most preferred. In a few lines: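 Air entrainment was measured in cement pastes of fixed composition and fluidity. The candidate agent was tested alone at 0.1 wt % in a cement-only paste. It was also tested at 0.05 and 0.1 wt % in a fly ash (B1)-cement paste with DDBS, where air recovery was calculated against the same paste without agent.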

Data set [4] can be described thus: Paste air entrainment, Maximum air protocol. The note with it: Air 30 (0.0125 wt %)/ND/X=1/4/4, X = the labelled SA; for Average of air entrained at 66 min: over the fly ash:PCA pastes of Table 9. Here is the method: Preparation of pastes: Pastes were prepared by pouring 400 g of cementitious powder in the 350-400 g of solution (water and additives) in a vessel (8.4 cm dia,×14.5 cm height) while gently stirring with a spatula; the exact quantity of water depends on the selected W/B ratio (see below); rapid hand mixing was continued for 1 minute, followed by intense stirring at 25° C. during 2 min using a hand-held mixer (BRAUN model MR400). The level of air entrained is dependent on the mode of utilisation of the mixer, namely the height of the mixer from the bottom of the vessel and the length of the mixing stroke; the following protocols were adopted.
Fluidity measurements: For all air entrainment measurements, the initial fluidity of the paste (without additives) was controlled using the ‘mini-slump’ procedure widely used for paste and grouts. In this protocol, a portion of the paste was transferred into the min-slump cone (a 2¼″ high, 1½″ bottom diameter, ¾″ top diameter cone); excess paste was skimmed-off with a straight; the cone was then raised and the spread diameter of the paste was recorded (average of two measurements). The fluidity is measured at 10 minutes after mixing. The paste is returned to the batch and reserved for subsequent AE measurements. The fluidity of the paste (without SA and AEA) is adjusted by changing the amount of water (water/cementitious ratio) which yields a spread diameter of 115±5 mm. The latter is monitored regularly.
Air entrainment measurements: For air entrainment measurements, a portion of the paste was transferred to overfill a Plexiglas cylinder (3¾ inches height, 2 inches interior diameter), which was then levelled flush to the top of the cylinder with a straight edge. The mass of the filled cylinder, minus the weight of the empty cylinder, is then recorded and used to calculate the amount of air according to the following formula: […]
This procedure was carried out at three times at 30 min. intervals (6, 36 and 66 min); the paste was let to stand at rest between measurements, and was stirred gently by hand for one minute prior to the subsequent air entrainment measurements.
Other combinations of air entrainment agents and sacrificial agents were prepared as stock solutions following the procedure outlined above, adjusting the weights of the various components to achieve the desired component ratios.

Where [5] appears, read: 50:50 fly ash B1 (LOI 4.36%):PCA paste.
[6] abbreviates: 50:50 fly ash C1 (LOI 1.62%):PCA paste.
The mark [7] stands for this setting: 50:50 fly ash D (LOI […]):PCA paste.
[8] abbreviates: 50:50 fly ash M1 (LOI […]):PCA paste.
[9] abbreviates: 50:50 fly ash M2 (LOI 5.34%):PCA paste.
[10] abbreviates: 50:50 fly ash M3 (LOI 11.33%):PCA paste.
[11] abbreviates: 50:50 fly ash R (LOI […]):PCA paste.
Where [12] appears, read: Portland cement paste (PCA), […].
[13] abbreviates: sacrificial agent overall rating index.

On to `NCc1ccccc1` [BA, Benzylamine], for which the “Adsorption (wt % Adsorbed)” value in data set [1] (10 wt % fly ash B1 (LOI 4.36%) slurry, Air 30/Air 40 0.105 wt %) is on record as 25 wt %; in data set [1] (10 wt % fly ash C1, class C (LOI 1.62%) slurry, Air 30/Air 40 0.105 wt %), 25 wt %; in data set [1] (10 wt % fly ash C2 (LOI 3.32%) slurry), 20 wt %; in data set [1] (10 wt % fly ash M1 (LOI […]) slurry, Air 30/Air 40 0.105 wt %) it was 13 wt %; in data set [1] (10 wt % fly ash M2 (LOI 5.34%) slurry, Air 30/Air 40 0.105 wt %), 23 wt %; in data set [1] (10 wt % fly ash M3 (LOI 11.33%) slurry, Air 30/Air 40 0.105 wt %), 23 wt %. In data set [1] (10 wt % fly ash N (LOI 0.30%) slurry), the “Adsorption (wt % Adsorbed)” value is 16 wt %. Also, the “Precipitation (wt % precipitated)” value is listed as 12 wt % in data set [2] (solution extracted from 10 wt % fly ash B1 (LOI 4.36%) slurry); 11 wt % in data set [2] (solution extracted from 10 wt % fly ash C1, class C (LOI 1.62%) slurry); 14 wt % in data set [2] (solution extracted from 10 wt % fly ash C2 (LOI 3.32%) slurry); 11 wt % in data set [2] (solution extracted from 10 wt % fly ash M1 (LOI […]) slurry); 15 wt % in data set [2] (solution extracted from 10 wt % fly ash M2 (LOI 5.34%) slurry); 13 wt % in data set [2] (solution extracted from 10 wt % fly ash M3 (LOI 11.33%) slurry). For the same compound, the “Precipitation (wt % precipitated)” value in data set [2] (solution extracted from 10 wt % fly ash N (LOI 0.30%) slurry) came to 11 wt %.

As for `COCCO` [EGME, Ethylene glycol methyl ether], the “B1 + 0.0125% DDBS + 0.05% SA (air entrainment)” value in data set [3] was found to be 3.3. Moreover, the “B1 + 0.0125% DDBS + 0.1% SA (air entrainment)” value (“B1 + 0.0125% DDBS + 0.1% SA” below) in data set [3] worked out at 4.3. In data set [3], the “Overall performance rating (second protocol rating)” value (shortened to “Overall performance rating”) is reported as 1. For the same compound, the “PCA + 0.1% SA (level of air entrainment by the candidate sacrificial agent)” value (“PCA + 0.1% SA” below) in data set [3] is recorded as 0.7. Moreover, the “SA Rating (0-4)” value in data set [3] is given as 1. In addition, the “Air entrained at 66 min” value in data set [4] (setting [5]) came to 12 vol %; in data set [4] (setting [6]), 20 vol %; in data set [4] (setting [7]), 20 vol %; in data set [4] (setting [8]) it was 17 vol %; in data set [4] (setting [9]), 8 vol %; in data set [4] (setting [10]) it was 12 vol %. Also, the “Air entrained at 66 min” value in data set [4] (setting [11]) was 17 vol %; in data set [4] (PCA paste, no fly ash), 18 vol %. The “Average of air entrained at 66 min” value in data set [4] is given as 15%.

For the compound `OCC(O)CO` [Glycerol], the “Overall performance rating” value in data set [3] came to 2. In addition, in data set [3] (B1 FA/cement paste, […]), the “B1 + 0.0125% DDBS + 0.1% SA” value stood at 2.3. Also, in data set [3] (setting [12]), the “PCA + 0.1% SA” value came out at 0.1. Besides, the “SA Rating (0-4)” value in data set [3] (setting [13]) was 2. The “Air entrained at 66 min” value in data set [4] (setting [5]) was found to be 12 vol %; in data set [4] (setting [6]) it was 18 vol %; in data set [4] (setting [7]) it was 18 vol %; in data set [4] (setting [8]), 16 vol %; in data set [4] (setting [9]), 7 vol %; in data set [4] (setting [10]), 11 vol %. In addition, the “Air entrained at 66 min” value in data set [4] (setting [11]) is 18 vol %; in data set [4] (PCA paste, no fly ash), 16 vol %. In data set [4], the “Average of air entrained at 66 min” value is listed as 14%.

As to `CCCCOCCOCCO` [Di-EGBE, Di-ethylene glycol butyl ether], in data set [3], the “Overall performance rating” value was 4. Moreover, the “B1 + 0.0125% DDBS + 0.05% SA (air entrainment)” value in data set [3] (B1 FA/cement paste, […]) was 9.9. For the same compound, the “B1 + 0.0125% DDBS + 0.1% SA” value in data set [3] (B1 FA/cement paste, […]) is 11.2. The “PCA + 0.1% SA” value in data set [3] (setting [12]) is 2.7. Further, the “SA Rating (0-4)” value in data set [3] (setting [13]) was 4. The “Air entrained at 66 min” value in data set [4] (setting [5]) came to 16 vol %; in data set [4] (setting [6]) it was 21 vol %; in data set [4] (setting [7]), 24 vol %; in data set [4] (setting [8]), 21 vol %; in data set [4] (setting [9]) it was 11 vol %; in data set [4] (setting [10]), 17 vol %. The “Air entrained at 66 min” value turned out to be 22 vol % in data set [4] (setting [11]) and 22 vol % in data set [4] (PCA paste, no fly ash). The “Average of air entrained at 66 min” value in data set [4] amounted to 19%.

As for “Polyethylene glycol (Molecular weight = 200) [PEG 200]”, the “Overall performance rating” value in data set [3] (sum of ratings of air entrainment recovery by 0.05% and 0.1% SA, DDBS 0.0125 wt %, 50:50 B1 fly ash:cement paste) was 3. The “Air entrained at 66 min” value in data set [4] (setting [5]) is reported as 14 vol %; in data set [4] (setting [7]), 20 vol %; in data set [4] (setting [8]) it was 19 vol %; in data set [4] (setting [9]), 9 vol %; in data set [4] (setting [11]), 18 vol %; in data set [4] (PCA paste, no fly ash) it was 18 vol %. Also, the “Average of air entrained at 66 min” value in data set [4] is 16%.
